Assay results from PubChem BioAssay (NCI).
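At the GI50, growth is halved. TGI marks complete inhibition of growth.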

Tests used:
Experiment in all cases: NCI anticancer screen, dose series, 384-well format
MALME-3M melanoma = test system: MALME-3M melanoma
HCT-15 colon = test system: HCT-15 colon
NCI-H322M lung = test system: NCI-H322M lung
PC-3 prostate = test system: PC-3 prostate
SW-620 colon = test system: SW-620 colon
T-47D breast = test system: T-47D breast
SF-295 CNS = test system: SF-295 CNS
MDA-MB-435 melanoma = test system: MDA-MB-435 melanoma
HL-60(TB) leukemia = test system: HL-60(TB) leukemia
MOLT-4 leukemia = test system: MOLT-4 leukemia
SNB-75 CNS = test system: SNB-75 CNS
MDA-MB-231 breast = test system: MDA-MB-231 breast
NCI-H522 lung = test system: NCI-H522 lung

Cc1cc([C@H](C)Nc2nccc(N3C(=O)OC[C@@H]3[C@H](C)F)n2)ncc1-c1ccnc(C(F)(F)F)c1
GI50 (MALME-3M melanoma): 28.3 µM
TGI (MALME-3M melanoma): > 100 µM
GI50 (HCT-15 colon): 33.9 µM
TGI (HCT-15 colon): > 100 µM
GI50 (NCI-H322M lung): 41.5 µM
TGI (NCI-H322M lung): > 100 µM
GI50 (PC-3 prostate): 27.7 µM
TGI (PC-3 prostate): > 100 µM
GI50 (SW-620 colon): 61 µM
TGI (SW-620 colon): > 100 µM
GI50 (T-47D breast): 5.13 µM
TGI (T-47D breast): > 100 µM
GI50 (SF-295 CNS): 33.5 µM
TGI (SF-295 CNS): > 100 µM
GI50 (MDA-MB-435 melanoma): 52.7 µM
TGI (MDA-MB-435 melanoma): > 100 µM
GI50 (HL-60(TB) leukemia): 17.5 µM
TGI (HL-60(TB) leukemia): 31.3 µM
GI50 (MOLT-4 leukemia): 12.5 µM
TGI (MOLT-4 leukemia): 25.3 µM
GI50 (SNB-75 CNS): 29.7 µM
TGI (SNB-75 CNS): > 100 µM
GI50 (MDA-MB-231 breast): 46.4 µM
TGI (MDA-MB-231 breast): > 100 µM
GI50 (NCI-H522 lung): 13.5 µM
TGI (NCI-H522 lung): 58.7 µM
